Measurements published in article PMC12546632, “The role of cytochrome bc1 inhibitors in future tuberculosis treatment regimens” (Nature Communications, 2025).
In brackets after ≈: the same amount, converted by molar mass.

Experiments:
[1] = test system: M. tuberculosis H37Rv; assay: MIC90 determination, H37Rv; format: cell-based, Mycobacterium tuberculosis; conditions: Mycobacterium tuberculosis; strain H37Rv (Institut Pasteur, lineage 4); read-out: MIC90
[2] = test system: M. tuberculosis clinical isolates; assay: microbe, parasite or virus in culture; format: cell-based, Mycobacterium tuberculosis; conditions: Mycobacterium tuberculosis
[3] = test system: M. tuberculosis ΔcydAB (Parent); assay: microbe, parasite or virus in culture; format: cell-based; conditions: Mycobacterium tuberculosis
[4] = test system: M. tuberculosis reference strain H37Rv; assay: Survival under monotherapy in intravenous model (related to Study C); format: in vivo, Mycobacterium tuberculosis; conditions: for Survival of mice under monotherapy: in vivo, iv; for Day of death, individual mice: intravenous model, monotherapy, read with the 1/0 flag of the same line (96 with flag 0)

Compound: COc1nc2ccc(Br)cc2cc1[C@@H](c1ccccc1)[C@@](O)(CCN(C)C)c1cccc2ccccc12 [Bedaquiline, bedaquiline, reference compound]
- MIC90 [1]: 0.197 µM (≈ 0.109 µg/mL)
- MIC90 ([2]; strain Mtb-0617 (Karonga, lineage 3)): 0.431 µM (≈ 0.239 µg/mL)
- MIC90 ([2]; strain Mtb-2703 (Karonga, lineage 3)): 0.064 µM (≈ 0.0356 µg/mL)
- MIC90 ([2]; strain Mtb-4779 (Karonga, lineage 2)): 0.045 µM (≈ 0.025 µg/mL)
- MIC90 ([2]; strain Mtb-4980 (Karonga, lineage 4)): 0.063 µM (≈ 0.035 µg/mL)
- MIC90 ([2]; strain Mtb-6787 (Karonga, lineage 4)): 0.053 µM (≈ 0.0294 µg/mL)
- MIC90 ([2]; strain Mtb-7489 (Karonga, lineage 1)): 0.43 µM (≈ 0.239 µg/mL)
- MIC90 ([2]; strain Mtb-7496 (Karonga, lineage 3)): 0.106 µM (≈ 0.0589 µg/mL)
- MIC90 ([2]; strain Mtb-9271 (Karonga, lineage 4)): 0.05 µM (≈ 0.0278 µg/mL)
- MIC90 ([2]; strain Mtb-61164 (Karonga, lineage 2)): 0.188 µM (≈ 0.104 µg/mL)
- MIC90 ([2]; strain N0054 (Gagneux, lineage 3)): 0.354 µM (≈ 0.197 µg/mL)
- MIC90 ([2]; strain N0072 (Gagneux, lineage 1)): 0.17 µM (≈ 0.0944 µg/mL)
- MIC90 ([2]; strain N1283 (Gagneux, lineage 4)): 0.104 µM (≈ 0.0578 µg/mL)
- MIC50 [3]: 0.05 µM (≈ 0.0278 µg/mL)
- Survival of mice under monotherapy [4]: 100%
- Day of death, individual mice [4]: 96

Compound: NNC(=O)c1ccncc1 [Isoniazid, isoniazid]
- MIC50 [3]: 0.51 µM (≈ 0.0699 µg/mL)

Compound: COc1c(N2C[C@@H]3CCCN[C@@H]3C2)c(F)cc2c(=O)c(C(=O)O)cn(C3CC3)c12 [Moxifloxacin, moxifloxacin, reference compound]
- Survival of mice under monotherapy [4]: 100%
- Day of death, individual mice [4]: 96

Compound: CO[C@H]1/C=C/O[C@@]2(C)Oc3c(C)c(O)c4c(O)c(c(/C=N/N5CCN(C)CC5)c(O)c4c3C2=O)NC(=O)/C(C)=C\C=C\[C@H](C)[C@H](O)[C@@H](C)[C@@H](O)[C@@H](C)[C@H](OC(C)=O)[C@@H]1C [Rifampicin, rifampicin]
- MIC50 [3]: 0.1 µM (≈ 0.0823 µg/mL)
